Counter-ions that a name gives are not always drawn.
Target: T1, human CGT (ceramide galactosyltransferase), CHO/CGT lysate (Homo sapiens, UniProt Q16880)
T1 construct: Full-length human CGT cDNA was cloned into the BamH1/Xho1 site of pcDNA3.1 (+); expressed in transfected cells; host or cells: Chinese hamster ovary (CHO) cells; lysate prepared with M-PER
T1 sequence (Q16880 21-541): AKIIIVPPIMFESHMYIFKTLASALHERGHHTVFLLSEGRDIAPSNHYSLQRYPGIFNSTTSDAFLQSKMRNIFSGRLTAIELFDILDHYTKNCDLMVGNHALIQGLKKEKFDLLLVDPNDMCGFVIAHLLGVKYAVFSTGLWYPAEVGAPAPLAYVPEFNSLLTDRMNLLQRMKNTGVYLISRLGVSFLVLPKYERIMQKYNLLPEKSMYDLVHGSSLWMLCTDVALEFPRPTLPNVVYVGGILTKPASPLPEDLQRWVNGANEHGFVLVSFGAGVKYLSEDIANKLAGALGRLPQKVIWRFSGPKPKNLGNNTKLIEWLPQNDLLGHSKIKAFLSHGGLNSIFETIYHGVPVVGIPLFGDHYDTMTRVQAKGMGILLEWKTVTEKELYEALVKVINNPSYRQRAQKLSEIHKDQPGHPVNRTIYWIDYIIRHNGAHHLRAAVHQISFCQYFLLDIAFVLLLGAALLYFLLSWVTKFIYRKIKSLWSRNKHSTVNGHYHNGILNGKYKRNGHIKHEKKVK
Experiment: CGT enzyme assay, LC-MS/MS readout (Table 1 ranges without asterisk)
Format: biochemical
Conditions: LC-MS/MS method (range without asterisk)
Summary of the method: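 Lysate of CHO cells transfected with full-length human CGT incubated 1 h at 37 °C with compound (0.001–50 μM) in HEPES pH 7.2 with 17.5 μM UDP-galactose and C12:0 (2R-OH) ceramide substrate, 0.5% DMSO, no Tween 80. Galactosylceramide product quantified by LC-MS/MS against C12 ceramide internal standard; IC50 calculated.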

First: CC(C)Oc1ccc2cc(S(=O)(=O)N[C@@H](C(=O)N3C4CCC3CC(N(C)C)C4)C(F)(F)c3ccc(Br)cc3)ccc2c1 (stereo partly drawn) [Compound 21-2, N-((2S)-1-(4-bromophenyl)-3-(3-(dimethylamino)-8-azabicyclo[3.2.1]octan-8-yl)-1,1-difluoro-3-oxopropan-2-yl)-6-isopropoxy naphthalene-2-sulfonamide]
Second: CC(C)Oc1ccc2cc(S(=O)(=O)N[C@@H](C(=O)N3C4CCC3CC(N)C4)C(F)(F)c3ccc(Br)cc3)ccc2c1 (stereo partly drawn) [Compound 1-2, N-((2S)-3-(3-amino-8-azabicyclo[3.2.1]octan-8-yl)-1-(4-bromophenyl)-1,1-difluoro-3-oxopropan-2-yl)-6-isopropoxynaphthalene-2-sulfonamide]
The IC50 of the first is higher: 30 to 100 µM for the first, 10 to 30 µM for the second. The second is the more potent here.

First: CCC(CC)COc1ccc(S(=O)(=O)N[C@@H](C(=O)N2C3CCC2CC(N)C3)C(F)(F)c2ccc(Br)cc2)cc1 (stereo partly drawn) [Compound 2-2, N-((2S)-3-(3-amino-8-azabicyclo[3.2.1]octan-8-yl)-1-(4-bromophenyl)-1,1-difluoro-3-oxopropan-2-yl)-4-(2-ethylbutoxy)benzenesulfonamide]
Second: CCC(CC)COc1ccc(S(=O)(=O)N[C@H](C(=O)N2C3CCC2CC(N)C3)C(F)(F)c2ccc(Br)cc2)cc1 (stereo partly drawn) [Compound 2-1, N-((2R)-3-(3-amino-8-azabicyclo[3.2.1]octan-8-yl)-1-(4-bromophenyl)-1,1-difluoro-3-oxopropan-2-yl)-4-(2-ethylbutoxy)benzenesulfonamide]
The IC50 of the first is higher: 30 to 100 µM for the first, 1 to 10 µM for the second.

`NC1CC2CCC(C1)N2C(=O)[C@H](NS(=O)(=O)c1cccc(OCc2ccc(F)cc2)c1)C(F)(F)c1ccc(Br)cc1` (stereo partly drawn) [Compound 17-2, N-((2S)-3-(3-amino-8-azabicyclo[3.2.1]octan-8-yl)-1-(4-bromophenyl)-1,1-difluoro-3-oxopropan-2-yl)-3-((4-fluorobenzyl)oxy) benzenesulfonamide trifluoroacetate] and `NC1CC2CCC(C1)N2C(=O)[C@@H](NS(=O)(=O)c1cccc(OCc2ccc(F)cc2)c1)C(F)(F)c1ccc(Br)cc1` (stereo partly drawn) [Compound 17-1, N-((2R)-3-(3-amino-8-azabicyclo[3.2.1]octan-8-yl)-1-(4-bromophenyl)-1,1-difluoro-3-oxopropan-2-yl)-3-((4-fluorobenzyl)oxy)benzenesulfonamide trifluoroacetate] fall in the same range of IC50: 30 to 100 µM for the first, 30 to 100 µM for the second.

Compared with `CC[C@H](C)Oc1ccc2cc(S(=O)(=O)N[C@H](C(=O)N3C4CCC3CC(N)C4)C(F)(F)c3ccc(Br)cc3)ccc2c1` (stereo partly drawn) [Compound 13-3, N-((2R)-3-(3-amino-8-azabicyclo[3.2.1]octan-8-yl)-1-(4-bromophenyl)-1,1-difluoro-3-oxopropan-2-yl)-6-((S)-sec-butoxy)naphthalene-2-sulfonamide], `CC[C@@H](C)Oc1ccc2cc(S(=O)(=O)N[C@@H](C(=O)N3C4CCC3CC(N)C4)C(F)(F)c3ccc(Br)cc3)ccc2c1` (stereo partly drawn) [Compound 13-4, N-((2S)-3-(3-amino-8-azabicyclo[3.2.1]octan-8-yl)-1-(4-bromophenyl)-1,1-difluoro-3-oxopropan-2-yl)-6-((R)-sec-butoxy)naphthalene-2-sulfonamide] is higher in IC50: 1 to 10 µM for the first, 10 to 30 µM for the second.

First: CC(C)c1ccc2cc(S(=O)(=O)N[C@@H](C(=O)N3C4CCC3CC(N)C4)C(F)(F)c3ccc(Br)cc3)ccc2c1 (stereo partly drawn) [Compound 16-2, N-((2S)-3-(3-amino-8-azabicyclo[3.2.1]octan-8-yl)-1-(4-bromophenyl)-1,1-difluoro-3-oxopropan-2-yl)-6-isopropylnaphthalene-2-sulfonamide trifluoroacetate]
Second: CC(C)c1ccc2cc(S(=O)(=O)N[C@H](C(=O)N3C4CCC3CC(N)C4)C(F)(F)c3ccc(Br)cc3)ccc2c1 (stereo partly drawn) [Compound 16-1, N-((2R)-3-(3-amino-8-azabicyclo[3.2.1]octan-8-yl)-1-(4-bromophenyl)-1,1-difluoro-3-oxopropan-2-yl)-6-isopropylnaphthalene-2-sulfonamide trifluoroacetate]
The IC50 of the first is higher: 30 to 100 µM for the first, 1 to 10 µM for the second. The second is the more potent here.

First: NC1CC2CCC(C1)N2C(=O)[C@@H](NS(=O)(=O)c1ccc(OCC2CCCCC2)cc1)C(F)(F)c1ccc(Br)cc1 (stereo partly drawn) [Compound 12-1, N-((2R)-3-(3-amino-8-azabicyclo[3.2.1]octan-8-yl)-1-(4-bromophenyl)-1,1-difluoro-3-oxopropan-2-yl)-4-(cyclohexylmethoxy)benzenesulfonamide trifluoroacetate]
Second: CCCCOc1ccc(S(=O)(=O)N[C@H](C(=O)N2C3CCC2CC(N)C3)C(F)(F)c2ccc(Br)cc2)cc1 (stereo partly drawn) [Compound 22-1, N-((2R)-3-(3-amino-8-azabicyclo[3.2.1]octan-8-yl)-1-(4-bromophenyl)-1,1-difluoro-3-oxopropan-2-yl)-4-butoxybenzenesulfonamide]
The IC50 of the first is higher: 10 to 30 µM for the first, 1 to 10 µM for the second.

`NC1CC2CCC(C1)N2C(=O)[C@H](NS(=O)(=O)c1ccc2cc(OC3CCCC3)ccc2c1)C(F)(F)c1ccc(Br)cc1` (stereo partly drawn) [Compound 5-2, N-((2S)-3-(3-amino-8-azabicyclo[3.2.1]octan-8-yl)-1-(4-bromophenyl)-1,1-difluoro-3-oxopropan-2-yl)-6-(cyclopentyloxy)naphthalene-2-sulfonamide trifluoroacetate] and `NC1CC2CCC(C1)N2C(=O)[C@@H](NS(=O)(=O)c1ccc2cc(OCc3ccccc3)ccc2c1)C(F)(F)c1ccc(Br)cc1` (stereo partly drawn) [Compound 24-1, N-((2R)-3-(3-amino-8-azabicyclo[3.2.1]octan-8-yl)-1-(4-bromophenyl)-1,1-difluoro-3-oxopropan-2-yl)-6-(benzyloxy)naphthalene-2-sulfonamide] fall in the same range of IC50: 1 to 10 µM for the first, 1 to 10 µM for the second.

`CC(C)Oc1ccc2cc([C@@H](O)C(=O)N[C@H](C(=O)N3C4CCC3CC(N)C4)C(F)(F)c3ccc(Br)cc3)ccc2c1` (stereo partly drawn) [Compound 19-5, (2R)—N-((2R)-3-(3-amino-8-azabicyclo[3.2.1]octan-8-yl)-1-(4-bromophenyl)-1,1-difluoro-3-oxopropan-2-yl)-2-hydroxy-2-(6-isopropoxynaphthalen-2-yl)acetamide trifluoroacetate] and `CC(C)Oc1ccc2cc(C(=O)C(=O)N[C@H](C(=O)N3C4CCC3CC(N)C4)C(F)(F)c3ccc(Br)cc3)ccc2c1` (stereo partly drawn) [Compound 9-1, N-((2R)-3-(3-amino-8-azabicyclo[3.2.1]octan-8-yl)-1-(4-bromophenyl)-1,1-difluoro-3-oxopropan-2-yl)-2-(6-isopropoxynaphthalen-2-yl)-2-oxoacetamide trifluoroacetate] fall in the same range of IC50: 10 to 30 µM for the first, 10 to 30 µM for the second.

Compared with `NC1CC2CCC(C1)N2C(=O)[C@@H](NS(=O)(=O)c1ccc(OCc2ccccc2)cc1)C(F)(F)c1ccc(Br)cc1` (stereo partly drawn) [Compound 11-1, N-((2R)-3-(3-amino-8-azabicyclo[3.2.1]octan-8-yl)-1-(4-bromophenyl)-1,1-difluoro-3-oxopropan-2-yl)-4-(benzyloxy)benzenesulfonamide trifluoroacetate], `NC1CC2CCC(C1)N2C(=O)[C@H](NS(=O)(=O)c1ccc2cc(OCc3ccccc3)ccc2c1)C(F)(F)c1ccc(Br)cc1` (stereo partly drawn) [Compound 24-2, N-((2S)-3-(3-amino-8-azabicyclo[3.2.1]octan-8-yl)-1-(4-bromophenyl)-1,1-difluoro-3-oxopropan-2-yl)-6-(benzyloxy)naphthalene-2-sulfonamide] is higher in IC50: 10 to 30 µM for the first, 30 to 100 µM for the second.

Compound `NC1CC2CCC(C1)N2C(=O)C(NS(=O)(=O)c1ccc(-c2ccc(F)cc2)nc1)C(F)(F)c1ccc(Br)cc1` (stereo not shown) [Compound 199, N-(3-(3-amino-8-azabicyclo[3.2.1]octan-8-yl)-1-(4-bromophenyl)-1,1-difluoro-3-oxopropan-2-yl)-6-(4-fluorophenyl)pyridine-3-sulfonamide] has an IC50 of 30 to 100 µM.

From patent publication US20190322676A1, “CERAMIDE GALACTOSYLTRANSFERASE INHIBITORS FOR THE TREATMENT OF DISEASE” (BioMarin Pharmaceutical Inc., priority 2016, published 2019)
